Experimental data from patent US10266566B2, “Protease-resistant peptide ligands” (North Carolina State University, priority 2013, dated 2019).
“Also recorded” adds a separate entry of the source. Where a SMILES comes first, the peptide text is derived from it. Where no end group is shown, it is not given here. [ ]: non-standard residue; d: D form. The star is where a group is joined. Toyopearl = Toyopearl AF-Amino-650M resin to which the C-terminus is tethered; Trp(1-Me) = Cn1cc(C[C@H](N)C(=O)O)c2ccccc21; Phe(4-Me) = Cc1ccc(C[C@H](N)C(=O)O)cc1; Lys(Me2) = CN(C)CCCC[C@H](N)C(=O)O; Cit = NC(=O)NCCC[C@H](N)C(=O)O; For = O=C*

What was measured:
trypsin = test: Resistance of peptide ligands to proteolytic digestion: IgG yield after contact with trypsin; type: in vitro ADME; settings: for IgG Yield 3rd run (after trypsin): after α-chymotrypsin and then trypsin in Tris buffer pH 8.5; for resistance to trypsin (in words): loss of IgG binding capacity after enzyme treatment, FIG. 2
Description: (§1) All resins (35 mg each) were packed in a 30 mm×2.1 mm I.D. Microbore column (0.1 mL) (Alltech-Applied Science, Somerset, Pa., USA) and swollen with 20% v/v methanol. After equilibration with PBS, pH 7.4, three IgG binding tests were performed using a 10 mg/mL solution of hIgG in PBS. Between each binding test, the resin was contacted with a 0.15 mg/mL solution of either trypsin or α-chymotrypsin in Tris HCl buffer, pH 8.5. The chromatographic protocol employed for all five injections was as follows. One hundred microliters of feed sample was loaded onto the column at a flow rate of 0.05 mL/min (87 cm/h). After a washing step with 2 mL of equilibration buffer at a flow rate of 0.2 mL/min (348 cm/h), elution was performed with 4 mL of 0.2M acetate buffer pH 4.0 at a flow rate of 0.4 mL/min (696 cm/h). Finally, the adsorbent was regenerated with 4 mL of 0.85% phosphoric acid. The adsorbents HWRGWV-, HYFKFD-, and HFRRHL-Toyopearl (SEQ ID NOS: 6, 16, 17) resins were used as controls. The effluent was monitored by absorbance at 280 nm.
(§2) Based on the results reported in Table 2, the original sequences HWRGWV, HFRRHL, and HYFKFD (SEQ ID NOS: 1-3), and their variants HWMetCitGWMetV, HFMetCitCitHL, and HYMetFMetK(Met)2FMetD (SEQ ID NOS: 4, 5, 7) were tested for their resistance to enzymatic digestion. The sequences HWMetCitGWMetV (SEQ ID NO: 8), HFMetCitCitHL (SEQ ID NO: 5) were selected as the best variants of their respective original peptides, while HYMetFMetKMet2FMetD (SEQ ID NO: 7) was used as a negative control. […] Each adsorbent was subjected to five consecutive chromatographic runs. First, a solution of pure human polyclonal IgG at 10 mg/mL in PBS was injected to determine IgG yield for each adsorbent prior to contact with any enzyme. All four peptide variants gave a yield above 91% for this initial run. The resin was then contacted with a solution of α-chymotrypsin in Tris buffer pH 8.5 for 10 minutes. The amount of enzyme loaded onto the column was in a mass ratio of 1:100 peptide:enzyme, as done by Verdoliva et al.. After rinsing the resin, a second injection of IgG was then performed to estimate the loss of binding capacity due to the digestion of the peptide ligand by α-chymotrypsin. The resin was then contacted with the second enzyme solution, i.e., trypsin in Tris buffer pH 8.5, at the same peptide:enzyme ratio. A third IgG injection was finally performed to estimate the residual binding capacity of each resin after the second enzyme treatment.

α-chymotrypsin = target: T1, α-chymotrypsin (Bos taurus, UniProt P00766); test: Resistance of peptide ligands to proteolytic digestion: IgG yield after contact with α-chymotrypsin; type: in vitro ADME; settings: for IgG Yield 2nd run (after α-chymotrypsin): after contact with α-chymotrypsin in Tris buffer pH 8.5 for 10 minutes; for resistance to α-chymotrypsin (in words): loss of IgG binding capacity after enzyme treatment, FIG. 2
T1 construct: purchased Sigma Aldrich
Description: as §1, §2

human polyclonal IgG = test: Chromatographic IgG binding test of peptide-Toyopearl adsorbents with pure human polyclonal IgG; settings: peptide on Toyopearl resin, approx. 0.12 meq/g, 0.1 mL column; ratio of IgG eluted to total IgG loaded
Description: All resins (35 mg each) were packed in a 30 mm×2.1 mm I.D. Microbore column (0.1 mL) (Alltech-Applied Science, Somerset, Pa., USA) and swollen with 20% v/v methanol. After equilibration with PBS, pH 7.4, three IgG binding tests were performed using a 10 mg/mL solution of hIgG in PBS. Between each binding test, the resin was contacted with a 0.15 mg/mL solution of either trypsin or α-chymotrypsin in Tris HCl buffer, pH 8.5. The chromatographic protocol employed for all five injections was as follows. One hundred microliters of feed sample was loaded onto the column at a flow rate of 0.05 mL/min (87 cm/h). […] The effluent was monitored by absorbance at 280 nm.
The amount of IgG in the collected fractions was quantified by HPLC using 1 mL HiTrap Protein G column. The yield of IgG was calculated as the ratio of IgG eluted to total IgG loaded. The purity of IgG in the eluted fractions was determined by sodium dodecyl sulfate polyacrylamide gel electrophoresis (SDS-PAGE) under reducing conditions using NuPAGE® Novex 4-12% Bis-Tris gels in a Xcell SuperLock™ Mini-Cell system (LifeSciences, Carlsbad, Calif., USA). […] The IgG purity was determined by densitometric analysis of Coomassie-stained gels by means of ImageJ 1.32j software (National Institutes of Health, Bethesda, Md., USA). […]

IgG = test: Purification of IgG (IVIG) from Cohn fraction II+III of human plasma, yield and purity; type: binding
Description: Cohn fraction II+III was dissolved in PBS, pH 7.4 to obtain an approximate IgG concentration of 5 mg/mL and filtered sequentially using a 0.44 μm and a 0.22 μm filter from Pall Corporation (Port Washington, N.Y., USA). […] After equilibration with PBS buffer containing 0.25M NaCl, 100 μL of feed sample was loaded onto the column at a flow rate of 0.05 mL/min (87 cm/h). After washing the column with 2 mL of equilibration buffer at a flow rate of 0.2 mL/min (348 cm/h), elution was performed with 4 mL of 0.2M acetate buffer pH 5.0 at a flow rate of 0.4 mL/min (696 cm/h). Cleaning and regeneration were performed using 4 mL of 0.85% phosphoric acid followed by a wash with 4 mL of 2M urea in acetate buffer (pH 4.0). Toyopearl AF-rProtein A-650F resin was used as a positive control. As per manufacturer's instructions, the chromatographic protocol comprised binding with PBS, pH 7.4 (at a flow rate of 0.05 mL/min) and elution with 0.1M Glycine buffer pH 2.5 (at a flow rate of 0.4 mL/min). The effluent was monitored by absorbance at 280 nm. Fractions were collected and used for analysis of IgG purity and yield as described below.
The effect of conductivity of the binding buffer was studied at 0, 0.135 and 0.25 M NaCl added to PBS. After equilibration with binding buffer, 100 μL of feed was loaded onto the column at a flow rate of 0.05 mL/min (87 cm/h). Chromatographic protocol and fraction collection were done as above described.
The amount of IgG in the collected fractions was quantified by HPLC using 1 mL HiTrap Protein G column. The yield of IgG was calculated as the ratio of IgG eluted to total IgG loaded. The purity of IgG in the eluted fractions was determined by sodium dodecyl sulfate polyacrylamide gel electrophoresis (SDS-PAGE) under reducing conditions using NuPAGE® Novex 4-12% Bis-Tris gels in a Xcell SuperLock™ Mini-Cell system (LifeSciences, Carlsbad, Calif., USA). Sample preparation was done by adding 5 μL of NuPAGE® LDS buffer and 2 μL of NuPAGE® reducing agent to 13 μL of sample and boiling the resulting mixture for 10 min. Gels were Coomassie-stained by using SimpleBlue™ SafeStain. The IgG purity was determined by densitometric analysis of Coomassie-stained gels by means of ImageJ 1.32j software (National Institutes of Health, Bethesda, Md., USA).
The purity of the product was calculated as the fraction of the total area equivalent to the IgG bands at 25 and 50 KDa.
The original peptide ligands were employed as positive controls. The crude stock of Cohn II+III paste was diluted in PBS to prepare the feed sample and solid particles were removed by filtration prior to injection into the column. The chromatographic protocol adopted in this work was derived from previous optimizations and comprised the use of 0.25M NaCl in PBS as binding buffer and 0.2M acetate buffer pH 5.0 for elution [24]. Fractions were collected and analyzed by Protein G chromatography and SDS-PAGE (FIG. 3) to determine IgG yield and purity respectively.
To verify this hypothesis, binding studies were repeated using the above listed sequences and three binding buffers, comprising 0M, 0.13M, and 0.25M NaCl in PBS.

[1] = 0.13M NaCl in PBS binding buffer
[2] = 0.25M NaCl in PBS binding buffer

Row | Compound | IgG Yield 3rd run (after trypsin) (trypsin) | IgG Yield 2nd run (after α-chymotrypsin) (α-chymotrypsin) | resistance to trypsin (in words) (trypsin) | resistance to α-chymotrypsin (in words) (α-chymotrypsin) | other results
1 | Cc1ccc(C[C@H](NC(=O)[C@@H](N)Cc2c[nH]cn2)C(=O)N[C@@H](CCCNC(N)=O)C(=O)N[C@@H](CCCNC(N)=O)C(=O)N[C@@H](Cc2c[nH]cn2)C(=O)N[C@@H](CC(C)C)C(=O)O)cc1 [HFMetCitCitHL] (H-H[Phe(4-Me)][Cit][Cit]HL-OH; N-terminus and C-terminus assumed) | 91% | 92% |  |  | 
2 | HFcarbCitCitHL: variant of HFRRHL designed using carbamoyl-phenylalanine and citrulline (HF[Cit][Cit]HL-Toyopearl; not fully specified (residue 2); printed as HFcarbCitCitHL) |  |  |  |  | IgG Yield (human polyclonal IgG): 53%
3 | HYFKFD [HYFKFD, reference compound] | 71% | 76% | almost immune to the attack of trypsin |  | 
4 | CC(C)[C@H](NC(=O)[C@H](Cc1cn(C=O)c2ccccc12)NC(=O)CNC(=O)[C@H](CCCNC(N)=O)NC(=O)[C@H](Cc1cn(C=O)c2ccccc12)NC(=O)[C@@H](N)Cc1c[nH]cn1)C(=O)O [HWForCitGWForV] (H-HW(For)[Cit]GW(For)V-OH; N-terminus and C-terminus assumed) | 69% | 69% |  |  | 
5 | CC(C)[C@H](NC(=O)[C@H](Cc1cn(C)c2ccccc12)NC(=O)CNC(=O)[C@H](CCCNC(=N)N)NC(=O)[C@H](Cc1cn(C)c2ccccc12)NC(=O)[C@@H](N)Cc1c[nH]cn1)C(=O)O [HWMetRGWMetV] (H-H[Trp(1-Me)]RG[Trp(1-Me)]V-OH; N-terminus and C-terminus assumed) | 82% | 91% |  | resistance towards one enzyme only | 
6 | Ac-HWRGWV: acetylated version of the original HWRGWV (not fully specified (C-terminus); printed as Ac-HWRGWV; also: TOYOPEARL at residue 6) |  |  |  |  | IgG Purity (IgG; 0M NaCl in PBS binding buffer): 80%; IgG Yield (IgG; 0M NaCl in PBS binding buffer): 91%; IgG Purity (IgG; [1]): 80%; IgG Yield (IgG; [1]): 84%; IgG Purity (IgG; [2]): 84%; IgG Yield (IgG; [2]): 83%
7 | CC(C)[C@H](NC(=O)[C@H](Cc1cn(C)c2ccccc12)NC(=O)CNC(=O)[C@H](CCCNC(N)=O)NC(=O)[C@H](Cc1cn(C)c2ccccc12)NC(=O)[C@@H](N)Cc1c[nH]cn1)C(=O)O [HWMetCitGWMetV] (H-H[Trp(1-Me)][Cit]G[Trp(1-Me)]V-OH; N-terminus and C-terminus assumed) | 90% | 91% | completely unaffected by either | completely unaffected by either | 
8 | HFRRHL [HFRRHL, reference compound] | 54% | 78% | good substrate for trypsin |  | 
9 | HWRGWV [HWRGWV, reference compound] | 36% | 72% | degraded by both trypsin and α-chymotrypsin; also recorded: ideal substrate for trypsin | degraded by both trypsin and α-chymotrypsin | 
10 | HWMetCitDWMetV: variant created by replacing glycine with aspartic acid |  |  |  |  | IgG Yield (human polyclonal IgG): 47%
11 | Ac-HWMetCitGWMetV: acetylated version of the variant HWMetCitGWMetV (Ac-H[Trp(1-Me)][Cit]G[Trp(1-Me)]V; not fully specified (C-terminus)) |  |  |  |  | IgG Purity (IgG; [2]): 92%; IgG yield over the binding buffers (IgG; over 0M, 0.13M, 0.25M NaCl binding buffers): above 90%
12 | CC(C)[C@H](NC(=O)[C@H](Cc1c[nH]c2ccccc12)NC(=O)CNC(=O)[C@H](CCCNC(N)=O)NC(=O)[C@H](Cc1c[nH]c2ccccc12)NC(=O)[C@@H](N)Cc1c[nH]cn1)C(=O)O [HWCitGWV] (H-HW[Cit]GWV-OH; N-terminus and C-terminus assumed) | 71% | 73% | resistance towards one enzyme only |  | 
13 | COc1ccc(C[C@H](NC(=O)[C@@H](N)Cc2c[nH]cn2)C(=O)N[C@@H](Cc2ccc(C)cc2)C(=O)N[C@@H](CCCCN(C)C)C(=O)N[C@@H](Cc2ccc(C)cc2)C(=O)N[C@@H](CC(=O)O)C(=O)O)cc1 [HYMetFMetKMet2FMetD] (H-HY(Me)[Phe(4-Me)][Lys(Me2)][Phe(4-Me)]D-OH; N-terminus and C-terminus assumed) | 53% | 49% | high resistance to proteolysis | high resistance to proteolysis | 
